{
  "source": "paper PMC9127750",
  "about": "“Structure-based design of CDC42 effector interaction inhibitors for the treatment of cancer” (Cell reports, 2022)",
  "key": {"[1]": {"biological_target": "T1, RHOJ and PAK1-PBD interaction (Homo sapiens, UniProt Q9H4E5)", "T1 construct": "endogenous in cells; host or cells: WM3248 (or WM983B) melanoma cells; PAK1 PBD beads from Cell Biolabs kit", "T1 sequence (Q9H4E5 1-211 limits assumed)": "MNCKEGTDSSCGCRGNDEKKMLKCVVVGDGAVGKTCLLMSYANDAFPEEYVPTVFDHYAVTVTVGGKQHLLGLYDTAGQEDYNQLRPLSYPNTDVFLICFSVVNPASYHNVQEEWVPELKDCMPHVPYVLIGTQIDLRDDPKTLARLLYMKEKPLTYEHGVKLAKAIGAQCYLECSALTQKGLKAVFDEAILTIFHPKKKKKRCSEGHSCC", "test": "CDC42 interaction assay (PAK1-PBD pull-down)", "format": "cell-based", "details": "WM3248 cells; ARN22089 at 10 and 50 μM, lysates incubated with GTP; ARN12405 indicated doses (Fig S2B)", "protocol": "(§1) 24 hours later the lysates from treated and untreated cells were unloaded of guanosine nucleotides and either loaded with GDP or GTPγS. […] Precipitated lysates were then immunoblotted with indicated antibodies."}, "[2]": {"biological_target": "T2, CDC42 and PAK1-PBD interaction (Homo sapiens, UniProt P60953)", "T2 construct": "endogenous in cells; host or cells: WM3248 (or WM983B) melanoma cells; PAK1 PBD beads from Cell Biolabs kit", "T2 sequence (P60953 1-188 limits assumed)": "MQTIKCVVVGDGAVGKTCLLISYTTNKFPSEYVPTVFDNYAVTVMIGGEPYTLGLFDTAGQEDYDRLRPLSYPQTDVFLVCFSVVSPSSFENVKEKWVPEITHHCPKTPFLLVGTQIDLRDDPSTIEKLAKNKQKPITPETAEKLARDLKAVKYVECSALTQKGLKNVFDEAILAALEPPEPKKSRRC", "test": "CDC42 interaction assay (PAK1-PBD pull-down)", "format": "cell-based", "details": "WM3248 cells; ARN22089 at 10 and 50 μM, lysates incubated with GTP; ARN12405 indicated doses (Fig S2B)", "protocol": "as §1"}, "[3]": {"tested_on": "WM3248, SKMel3, A375, SW480, and SKM28", "test": "cells", "details": "Homo sapiens, read-out: IC50 across cancer cell lines", "protocol": "(§2) Cancer cell line viability assay was performed using a CellTiterGlo assay. Cells were cultured in their appropriate media and seeded in white multi-well plates. For the assays, cells were incubated with compound at 37°C overnight, and a CellTiterGlo assay was performed to quantify viable cells."}, "WM3248": {"tested_on": "WM3248", "test": "cells", "details": "Homo sapiens, WM3248, read-out: IC50 WM3248", "protocol": "as §2"}, "SKMel28 melanoma cells": {"tested_on": "SKMel28 melanoma cells", "test": "Cancer cell line viability assay (CellTiterGlo)", "format": "cell-based, Human", "details": "for decrease of activity compared with the hit: SKM28 cells, versus ARN12405; for dose response in SKM28 cell lines: Figure S2F"}, "A375 VMT": {"tested_on": "A375 VMT", "test": "Vascularized microtumor (VMT) assay", "format": "cell-based, Human", "details": "2 μM", "procedure": "(§3) Briefly, human endothelial colony-forming cell-derived endothelial cells (ECFC-EC) are isolated from cord blood via selection for the CD31 + cell population and cultured in EGM2 medium (Lonza). […] Cancer cells and LF are cultured in DMEM (Corning) containing 10% FBS (Gemini Bio). […] To load the microfluidic device, ECFC-EC and LF (both 8 × 10^6 cells/mL) and cancer cells (2.5 × 10^6 cells/mL) were resuspended in fibrinogen solution (10 mg/mL basal medium). The cell slurry was then mixed with 1 mL thrombin (3 U/mL) to catalyze gel solidification and quickly loaded into the tissue chambers of each VMT unit. […] All cells and VMTs are cultured in a 37°C, 20% O2, 5% O2 environment.\n(§4) Fluorescence images were acquired with an Olympus IX70 inverted microscope using SPOT software (SPOT Imaging, Sterling Heights, Michigan). […] Each chamber was normalized to time 0 baseline."}, "[4]": {"tested_on": "VMOs (vessels, no tumor cells)", "test": "Vascularized micro-organ (VMO) assay", "format": "cell-based, Human", "details": "no tumor cells (Figure 4D)", "procedure": "as §3, §4"}},
  "note": "“Also recorded” adds a separate entry of the source.",
  "data": [
    {"smiles": "Clc1ccc(Nc2cc(-c3ccncc3)nc(C3CCCNC3)n2)cc1", "note": "(centres unmarked) [ARN12405]", "values": [
      {"measurement": "inhibition of RHOJ - PAK1-PBD interaction", "setting": "[1]", "result": "inhibits RHOJ/CDC42-PAK interactions; also recorded: blocked the RHOJ/CDC42 PAK interaction"},
      {"measurement": "inhibition of CDC42 - PAK1-PBD interaction", "setting": "[2]", "result": "inhibits RHOJ/CDC42-PAK interactions; also recorded: blocked the RHOJ/CDC42 PAK interaction"}
    ]},
    {"smiles": "Clc1ccc(Nc2cc(-c3ccccc3)nc(C3CCCNC3)n2)cc1", "note": "(centres unmarked) [ARN21698]", "values": [
      {"measurement": "IC50", "setting": "[3]", "result": "6.3 to 10.9", "unit": "µM"},
      {"measurement": "IC50", "setting": "WM3248", "result": 8.42, "unit": "µM"}
    ]},
    {"smiles": "c1ccc(Nc2cc(-c3ccncc3)nc(C3CCCNC3)n2)cc1", "note": "(centres unmarked) [ARN21699]", "values": [
      {"measurement": "decrease of activity compared with the hit", "setting": "SKMel28 melanoma cells", "result": 2, "unit": "fold"}
    ]},
    {"smiles": "Clc1cccc(Nc2cc(-c3ccncc3)nc(C3CCCNC3)n2)c1", "note": "(centres unmarked) [ARN21700]", "values": [
      {"measurement": "IC50", "setting": "WM3248", "result": 30.9, "unit": "µM"},
      {"measurement": "decrease of activity compared with the hit", "setting": "SKMel28 melanoma cells", "result": 2, "unit": "fold"}
    ]},
    {"smiles": "COc1ccc(Nc2cc(-c3ccccc3)nc(C3CCOCC3)n2)cc1", "note": "[ARN22162, N-(4-methoxyphenyl)-6-phenyl-2-tetrahydropyran-4-yl-pyrimidin-4-amine]", "values": [
      {"measurement": "dose response in SKM28 cell lines", "setting": "SKMel28 melanoma cells", "result": "no dose response"}
    ]},
    {"smiles": "CN(C)c1ccc(Nc2cc(-c3ccccc3)nc(C3CCOCC3)n2)cc1", "note": "[ARN22163, N4,N4-dimethyl-N1-(6-phenyl-2-tetrahydropyran-4-yl-pyrimidin-4-yl)benzene-1,4-diamine]", "values": [
      {"measurement": "dose response in SKM28 cell lines", "setting": "SKMel28 melanoma cells", "result": "no dose response"}
    ]},
    {"smiles": "CCn1c(=O)c(-c2ccc(-c3cncs3)cc2Cl)cc2cnc(Nc3ccc(N4CCN(C)CC4)cc3)nc21", "note": "[FRAX597]", "values": [
      {"measurement": "growth of A375 cells and blood vessels in VMT", "setting": "A375 VMT", "result": "did not significantly inhibit"}
    ]},
    {"smiles": "Cc1ccc(F)c(NC(=O)Nc2ccc(-c3cccc4[nH]nc(N)c34)cc2)c1", "note": "[linifanib]", "values": [
      {"measurement": "vessel growth / angiogenesis in VMOs", "setting": "[4]", "result": "did inhibit angiogenesis"}
    ]}
  ]
}
